Laboratory results taken from PMC12501849, “Design, synthesis and evaluation of arylpurine-based sinefungin mimetics as zika virus methyltransferase inhibitors” (RSC Advances, 2025).
“Also recorded” adds a separate entry of the source.

Legend:
[1] = biological target: T1, DENV3 MTase (Dengue virus type 3, UniProt P27915); assay: Filter binding assay (FBA), DENV3 2′-O-MTase activity; assay type: biochemical; details: for inhibition at 50 µM: 2′-O-MTase activity, compound at 50 μM, read-out: Percentage of inhibition of DENV3 MTase
T1 construct: the MTase activity is located at the N-terminal of the viral NS5 protein; made in house
T1 sequence (P27915 2492-2753): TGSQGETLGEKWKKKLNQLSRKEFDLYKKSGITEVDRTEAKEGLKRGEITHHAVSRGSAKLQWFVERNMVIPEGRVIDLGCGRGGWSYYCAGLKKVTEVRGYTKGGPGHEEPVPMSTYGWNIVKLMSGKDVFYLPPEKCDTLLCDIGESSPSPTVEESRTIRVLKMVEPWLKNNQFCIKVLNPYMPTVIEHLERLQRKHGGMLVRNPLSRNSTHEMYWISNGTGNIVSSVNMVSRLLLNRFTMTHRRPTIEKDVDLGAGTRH
Protocol: (§1) The synthesized arylpurines were evaluated for their inhibitory activity against the 2′-O-MTase activity of ZIKV and DENV3 MTases by quantification of [^3H]-methyl transfer from the [^3H]-SAM on short synthetic capped RNA (GpppAC4), by using a filter binding assay (FBA).[13,33] The universal methyltransferase inhibitor sinefungin was included as a positive control (Table 1), whose IC50 value against ZIKV MTase has already been reported using a similar assay.[13] We assessed MTase inhibition by testing the synthesized compounds at a concentration of 50 μM.
(§2) Proteins were produced and purified as previously described.[13] Briefly, the coding sequence of ZIKV NS5 (aa 4-903) and the ZIKV NS5 MTase (aa 4-278) domain were synthesized (Genscript) based on the sequence of the ZIKV strain H/PF/2013 (GenBank accession no. KJ776791.2) and then cloned into a pQE30 (Qiagen) plasmid with an N-terminal His6 tag. The MTase domains (aa 4-278 and aa 1-264) were produced in Escherichia coli T7 Express Iq (New England BioLabs). Cells were grown in Terrific Broth at 37 °C until the optical density at 600 nm (OD600) reached 0.6. Protein expression was then induced by 0.5 mM IPTG (isopropyl-β-D-thiogalactopyranoside) at 17 °C overnight. Bacteria were harvested by centrifugation. The bacterial pellets from a 2-liter bacterial culture were resuspended in 100 ml lysis buffer (50 mM Tris–HCl [pH 8], 300 mM NaCl, 5% glycerol, 0.1% Triton, 10 μg per ml DNase I, 2 tablets of EDTA-free antiprotease cocktail [Roche], 0.25 mg per ml lysozyme). After 30 min of incubation at 4 °C, cells were sonicated and clarified by centrifugation prior to immobilized metal affinity chromatography (IMAC) purification on a 5-mL His prep column (GE Healthcare), with elution in 50 mM Tris–HCl, 300 mM NaCl, and 250 mM imidazole (pH 8.0). The eluted protein was then loaded on a 16/60 Superdex 200 (GE Healthcare) equilibrated in a mixture of 10 mM HEPES, 500 mM NaCl, glycerol 5%, and 1 mM dithiothreitol (DTT [pH 7.5]).
(§3) The FBA MTase assay was carried out in a reaction mixture [40 mM Tris–HCl (pH 8.0), 1 mM DTT, 1.9 μM SAM, and 0.1 μM ^3H-SAM (PerkinElmer)] in the presence of 0.7 μM GpppAC4 synthetic RNA and the MTase (500 nM), according to the method previously described.[39] Briefly, the MTase was first mixed with the compound suspended in DMSO (5% final DMSO) before the addition of RNA substrate and SAM and then incubated at 30 °C. Reactions mixtures were stopped after 30 min by their 10-fold dilution in ice-cold water. Samples were transferred to diethylaminoethyl (DEAE) filtermat (PerkinElmer) using a Filtermat Harvester (Packard Instruments). The RNA-retaining mats were washed twice with 10 mM ammonium formate pH 8.0, twice with water and once with ethanol. They were soaked with scintillation fluid (PerkinElmer), and ^3H-methyl transfer to the RNA substrates was determined using a Wallac MicroBeta TriLux liquid scintillation counter (PerkinElmer).

[2] = biological target: T2, ZIKV MTase (Zika virus, UniProt A0A024B7W1); set-up: method as in PMID 28031359; details: cited from earlier work
T2 construct: the ZIKV NS5 MTase (aa 4-278) domain were synthesized (Genscript); His6 (N); made in house; host or cells: Escherichia coli T7 Express Iq
T2 sequence (A0A024B7W1 2524-2798): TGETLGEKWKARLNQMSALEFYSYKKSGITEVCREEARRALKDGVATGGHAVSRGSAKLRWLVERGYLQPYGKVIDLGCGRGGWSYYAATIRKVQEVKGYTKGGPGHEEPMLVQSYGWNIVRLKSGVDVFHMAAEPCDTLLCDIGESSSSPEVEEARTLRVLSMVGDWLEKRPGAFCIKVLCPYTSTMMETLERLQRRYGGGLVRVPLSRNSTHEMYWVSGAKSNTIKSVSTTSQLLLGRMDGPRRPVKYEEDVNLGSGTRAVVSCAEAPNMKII

[3] = set-up: method as in PMID 30170321; details: cited from earlier work
[4] = biological target: T1, DENV3 MTase; set-up: method as in PMID 28031359; details: cited from earlier work
[5] = biological target: T2, ZIKV MTase; assay: Filter binding assay (FBA), ZIKV 2′-O-MTase activity; assay type: biochemical; details: for inhibition at 50 µM: 2′-O-MTase activity, compound at 50 μM, read-out: Percentage of inhibition of ZIKV MTase
Protocol: as §1, §2, §3

[6] = test system: ZIKV; assay: Antiviral assay against ZIKV in VeroE6 cells (CPE, MTS readout); assay type: cell-based, zika virus; details: for EC50: concentration that protects 50% of the cells from virus-induced cytopathic effect
Protocol: (§4) These compounds were next evaluated for their antiviral effect on ZIKV replication in Vero E6 and SH-SY5Y cells. 7-Deaza-2′-C-methyladenosine (7DMA), a viral polymerase inhibitor,[35] was included as a positive control.
(§5) Assessment of the antiviral activity against ZIKV in VeroE6 cells (African green monkey kidney cells; Vero 76, clone E6; ATCC: Cat# CRL-1586) was done as previously described.[35] The antiviral assays in the neuroblastoma SH-SY5Y cells (CRL-2266; ATCC) were conducted as follows: SH-SY5Y cells were seeded in assay medium (MEM supplemented with 2% fetal bovine serum, 2 mM L-glutamine and 0.075% sodium bicarbonate; all from Thermo Fisher Scientific) at a density of 15 000 cells/well in 96-well plates. Cells were incubated overnight at 37 °C and 5% CO2. The next day, a serial dilution of the compounds was added to the cells, followed by inoculation of the cells with ZIKV MR766 (MOI = 0.01). Following a 7-day incubation at 37 °C and 5% CO2, ZIKV-induced cytopathic effect was determined by means of the MTS readout method, analogous to the assay with the VeroE6 cells.[35] The 50% effective concentration (the compound concentration that is required to inhibit virus-induced CPE by 50%; EC50) and the 50% cytotoxic concentration (i.e. the compound concentration that is required to inhibit the cell growth by 50%; CC50) was determined using logarithmic interpolation.

[7] = test system: ZIKV MR766; assay: Antiviral assay against ZIKV in SH-SY5Y cells (CPE, MTS readout); assay type: cell-based, zika virus
Protocol: as §4
Besides the standard assays in VeroE6 cells, the compounds were also tested in SH-SY5Y cells. […] Thus, they function as a relevant neuronal cell-based model of ZIKV infection.[38]
as §5

[8] = test system: VeroE6 cells; assay: Cytotoxicity in non-infected VeroE6 cells; assay type: cell-based, African green monkey
Protocol: as §5

[9] = Cytotoxicity in non-infected VeroE6 cells; assay type: cell-based, African green monkey; details: African green monkey, non-infected, 50% cytotoxic concentration
Protocol: as §5

[10] = Cytotoxicity in non-infected SH-SY5Y cells; assay type: cell-based; details: human, SH-SY5Y neuroblastoma cells, 50% cytotoxic concentration
Protocol: as §5

| Compound | inhibition at 50 µM [1] | ZIKV MTase inhibition (in words) [2] | Antiviral activity in cell culture (in words) [3] | DENV MTase inhibition (in words) [4] | inhibition at 50 µM [5] | EC50 ([6]; VeroE6 cells) | EC50 ([6]; Zika virus, Vero C1008, VeroE6 cells) | IC50 ([6]; Zika virus, Vero C1008, Vero E6 cells, read-out: IC50 (antiviral activity in cell culture)) | Antiviral activity against ZIKV (in words) ([6]; cell-based assay) | EC50 ([7]; Zika virus, 168 h, SH-SY5Y cells, ZIKV MR766, MOI 0.01, 7-day incubation) | Antiviral activity against ZIKV in SH-SY5Y cells (in words) ([7]; neuroblastoma SH-SY5Y cells) | Effect on 2′-O-MTase activity of DENV3 (in words) ([1]; tested at 50 μM) | CC50 relative to EC50 (fold higher) [8] | CC50 [9] | CC50 at 7 days [10] | Effect on 2′-O-MTase activity of ZIKV (in words) ([5]; tested at 50 μM) |
| --- | --- | --- | --- | --- | --- | --- | --- | --- | --- | --- | --- | --- | --- | --- | --- | --- |
| Nc1ncnc2c1ncn2[C@@H]1O[C@H](C[C@@H](N)CC[C@H](N)C(=O)O)[C@@H](O)[C@H]1O [Sinefungin] | 96.8% | potent | lack of antiviral activity | potent | 97.9% | – | – | – | – | – | – | – | – | – | – | – |
| Cc1ncnc2c1ccn2-c1cccc(N(CC[C@H](N)C(N)=O)CCC(C)(C)C)c1 [Compound 18, (S)-2-Amino-4-((3,3-dimethylbutyl)(3-(4-methyl-7H-pyrrolo[2,3-d]pyrimidin-7-yl)phenyl)amino) butanamide] | 10.1% | – | – | – | 10.8% | 27.2 ± 0.2 µM | 27 µM | 27.2 ± 0.2 µM | modest antiviral activity | > 100 µM | not confirmed | modest inhibition | ~3 fold | 66.2 ± 3.9 µM | 61 µM | inhibited; also recorded: modest inhibition |
